One assay addresses T1, p38α (Homo sapiens, UniProt Q16539).
T1 construct: c-myc (N); 6His (N); made in house; host or cells: E. coli (PET vectors)
Description: In vitro enzyme assay, p38α kinase. To be noted: approximate value; read-out: IC50 against p38α. The assay is classed as biochemical. How it is done:
The ability of compounds of the invention to inhibit the enzyme p38 kinase was assessed. Activity of test compounds against each of the p38α and p38β isoforms of the enzyme was determined.
Human recombinant MKK6 (GenBank Accesion Number G1209672) was isolated from Image clone 45578 (Genomics 1996, 33, 151) and utilised to produce protein in the form of a GST fusion protein in a pGEX vector using analogous procedures to those disclosed by J. Han el al., Journal of Biological Chemistry, 1996, 271, 2886-2891. p38α (GenBank Accession Number G529039) and p38β (GenBank Accession Number G1469305) were isolated by PCR amplification of human lymphoblastoid cDNA (GenBank Accession Number GM1416) and human foetal brain cDNA [synthesised from mRNA (Clontech, catalogue no. 6525-1) using a Gibco superscript cDNA synthesis kit] respectively using oligonucleotides designed for the 5′ and 3′ ends of the human p38α and p38β genes using analogous procedures to those described by J. Han et al., Biochimica et Biophysica Acta, 1995, 1265, 224-227 and Y. Jiang et al., Journal of Biological Chemistry 1996, 271, 17920-17926.
Both p38 protein isoforms were expressed in e coli in PET vectors. Human recombinant p38α and p38β isoforms were produced as 5′ c-myc, 6His tagged proteins. Both MKK6 and the p38 proteins were purified using standard protocols: the GST MKK6 was purified using a glutathione sepharose column and the p38 proteins were purified using nickel chelate columns.
The p38 enzymes were activated prior to use by, incubation with MKK6 for 3 hours at 30° C. The unactivated coli-expressed MKK6 retained sufficient activity to fully activate both isoforms of p38. The activation incubate comprised p38α (10 μl of 10 mg/ml) or p38β (10 μl of 5 mg/ml) together with MKK6 (10 μl of 1 mg/ml), ‘Kinase buffer’ [100 μl; pH 7.4 buffer comprising Tris (50 mM), EGTA (0.1 mM), sodium orthovanadate (0.1 mM) and β-mercaptoethanol (0.1%)] and MgATP (30 μl of 50 mM Mg(OCOCH3)2 and 0.5 mM ATP). This produced enough activated p38 enzyme for 3 Microtiter plates.
Test compounds were solubilised in DMSO and 10 μl of a 1:10 diluted sample in ‘Kinase Buffer’ was added to a well in a Microtiter plate. For single dose testing, the compounds were tested at 10 μM. ‘Kinase Assay Mix’ [30 μl; comprising Myelin Basic Protein (Gibco BRL cat no. 1322B-θ10; 1 ml of a 3.33 mg/ml solution in water), activated p38 enzyme (50 μl) and ‘Kinase Buffer’ (2 ml)] was then added followed by ‘Labelled ATP’ [10 μl; comprising 50 μM ATP, 0.1 μCi^33P ATP (Amersham International cat. no. BF 1000) and 50 mM Mg(OCOCH3)21]. The plates were incubated at room temperature with gentle agitation. Plates containing p38α were incubated for 90 min and plates containing p38β were incubated for 45 min. Incubation was stopped by the addition of 50 μl of 20% trichloroacetic acid (TCA). The precipitated protein was phosphorylated by p38 kinase and test compounds were assessed for their ability to inhibit this phosphorylation. The plates were filtered using a Canberra Packard Unifilter and washed with 2% TCA, dried overnight and counted on a Top Count scintillation counter.
Test compounds were tested initially at a single dose and active compounds were retested to allow IC50 values to be determined.

The subject of assay [1] is TNFα production by human peripheral blood mononuclear cells. As to the kind of experiment: PBMC test: LPS-stimulated TNFα production. To be noted: approximate value. In kind it is cell-based. How it is done:
The ability of compounds of this invention to inhibit TNFα production was assessed by using human peripheral blood mononuclear cells which synthesise and secrete TNFα when stimulated with lipopolysaccharide.
Peripheral blood mononuclear cells (PBMC) were isolated from heparinised (10 units/ml heparin) human blood by density centrifugation (Lymphoprep™; Nycomed). Mononuclear cells were resuspended in culture medium [RPMI 1640 medium (Gibco) supplemented with 50 units/ml penicillin, 50 μg/ml streptomycin, 2 mM glutamine and 1% heat-inactivated human AB serum (Sigma H-1513)]. Compounds were solubilised in DMSO at a concentration of 50 mM, diluted 1:100 in culture medium and subsequently serial dilutions were made in culture medium containing 1% DMSO. PBMCs (2.4×10^5 cells in 160 μl culture medium) were incubated with 20 μl of varying concentrations of test compound (triplicate cultures) or 20 μl culture medium containing 1% DMSO (control wells) for 30 minutes at 37° C. in a humidified (5% CO2/95% air) incubator (Falcon 3072; 96 well flat-bottom tissue culture plates). 20 μl lipopolysaccharide [LPS E. Coli 0111:B4 (Sigma L-4130), final concentration 10 μg/ml] solubilised in culture medium was added to appropriate wells. 20 μl culture medium was added to “medium alone” control wells. Six “LPS alone” and four “medium alone” controls were included on each 96 well plate. Varying concentrations of a known TNFα inhibitor were included in each test, i.e. an inhibitor of the PDE Type IV enzyme (for example see Semmler, J. Wachtel. H and Endres, S., Int. J. Immunopharmac. (1993), 15(3), 409-413) or an inhibitor of proTNFα convertase (for example, see McGeehan, G. M. el al. Nature (1994) 370, 558-561). Plates were incubated for 7 hours at 37° C. (humidified incubator) after which 100 μl of the supernatant was removed from each well and stored at −70° C. (96 well round-bottom plates; Corning 25850). TNFα levels were determined in each sample using a human TNFα ELISA (see WO92/10190 and Current Protocols in Molecular Biology, vol 2 by Frederick M. Ausbel et al., John Wiley and Sons Inc.). […]

In assay [2] the test system is TNFα production in human whole blood. Description: Human Whole Blood (HWB) test: LPS-stimulated TNFα production. In kind it is cell-based. To be noted: approximate value. As to the method:
The ability of the compounds of this invention to inhibit TNFα production was also assessed in a human whole blood assay. Human whole blood secretes TNFα when stimulated with LPS. This property of blood forms the basis of an assay which is used as a secondary test for compounds which profile as active in the PBMC test.
Heparinised (10 units/ml) human blood was obtained from volunteers. 160 μl whole blood were added to 96 well round-bottom plates (Corning 25850). Compounds were solubilised and serially diluted in RPMI 1640 medium (Gibco) supplemented with 50 units/ml penicillin, 50 μg/ml streptomycin and 2 mM glutamine, as detailed above. 20 μl of each test concentration was added to appropriate wells (triplicate cultures). 20 μl of RPMI 1640 medium supplemented with antibiotics and glutamine was added to control wells. Plates were incubated for 30 minutes at 37° C. (humidified incubator), prior to addition of 20 μl LPS (final concentration 10 μg/ml). RPMI 1640 medium was added to control wells. Six “LPS alone” and four “medium alone” controls were included on each plate. A known TNFαsynthesis/secretion inhibitor was included in each test. Plates were incubated for 6 hours at 37° C. (humidified incubator). Plates were centrifuged (2000 rpm for 10 minutes) and 100 μl plasma removed and stored at −70° C. (Corning 25850 plates). TNFα levels were measured by ELISA (see WO92/10190 and Current Protocols in Molecular Biology, vol 2 by Frederick M. Ausbel et al., John Wiley and Sons Inc.). The paired antibodies that were used in the ELIZA were obtained from R&D Systems (catalogue nos. MAB610 anti-human TNFα coating antibody, BAF210 biotinylated anti-human TNFα detect antibody).

T1 sequence (Q16539 whole entry): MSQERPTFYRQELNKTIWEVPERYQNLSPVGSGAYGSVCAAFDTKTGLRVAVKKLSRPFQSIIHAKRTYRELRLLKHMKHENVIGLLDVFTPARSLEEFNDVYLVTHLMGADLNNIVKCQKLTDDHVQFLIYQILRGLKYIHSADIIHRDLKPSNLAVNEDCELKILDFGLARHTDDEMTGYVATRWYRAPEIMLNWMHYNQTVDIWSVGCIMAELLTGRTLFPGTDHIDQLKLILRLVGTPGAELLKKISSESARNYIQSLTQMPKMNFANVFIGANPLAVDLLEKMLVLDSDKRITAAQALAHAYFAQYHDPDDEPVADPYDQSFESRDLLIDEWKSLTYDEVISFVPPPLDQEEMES

By IC50 is commonly meant the concentration that gives 50% inhibition. With `CCCc1ccc(C(=O)Nc2cc(C(=O)Nc3cccc(N(C)C)c3)ccc2C)cc1` [Example 3, Compound No. 1, N-(3-dimethylaminophenyl)-4-methyl-3-(4-propylbenzamido)benzamide], the IC50 was around 300 nM at p38α and around 6000 nM in assay [1].
For the compound `Cc1ccc(C(=O)Nc2cccc(N3CCOCC3)c2)cc1NC(=O)c1cccc(CN2CCN(C)CC2)c1` [Example 30, 4-methyl-3-[3-(4-methylpiperazin-1-ylmethyl)benzamido]-N-(3-morpholinophenyl)benzamide], the IC50 was around 5000 nM in assay [2] and around 50 nM at p38α.
In the case of `Cc1ccc(C(=O)Nc2cccc(N(C)C)c2)cc1NC(=O)c1ccc2ncccc2c1` [Example 12, N-(3-dimethylaminophenyl)-4-methyl-3-(6-quinolylcarbonylamino)benzamide], the IC50 was around 700 nM at p38α and around 22000 nM in assay [1].
As to `COc1ccc(C(=O)Nc2cc(C(=O)NCCC3CCCCC3)ccc2C)cc1OC` [Example 11, N-(2-cyclohexylethyl)-3-(3,4-dimethoxybenzamido)-4-methylbenzamide], the IC50 was around 1000 nM on p38α and around 8000 nM in assay [1].
On to `CCN(CC)Cc1ccc(C(=O)Nc2cc(C(=O)Nc3cccc(N4CCOCC4)c3)ccc2C)cc1` [Example 31(4), 4-methyl-3-(4-diethylaminomethylbenzamido)-N-(3-morpholinophenyl)benzamide], for which the IC50 in assay [2] is around 15000 nM; on p38α it was around 300 nM.
Turning to `Cc1ccc(C(=O)Nc2cccc(N3CCOCC3)c2)cc1NC(=O)c1cccc(OC2CCNCC2)c1` [Example 20, 4-methyl-N-(3-morpholinophenyl)-3-(3-piperidin-4-yloxybenzamido)benzamide], the 50% inhibitory concentration (IC50) in assay [2] is around 2000 nM; at p38α, around 50 nM.

The values are drawn from patent US6821965B1, “Amidobenzamide derivatives which are useful as cytokine inhibitors” (AsterZeneca AB, priority 1998, dated 2004).
